This note sets out measurements from ChEMBL document CHEMBL5247610, “Discovery of 5-((4-(pyridin-3-yl)pyrimidin-2-yl)amino)-1H-indole-2-carboxamide derivatives as novel anti-cancer agents targeting Nur77” (Eur J Med Chem, 2022).

What is called Kd is the constant that tells how readily two partners part at equilibrium. Lower therefore signals tighter binding. The IC50 is the point on the concentration scale where inhibition reaches its midpoint.

Each structure is given as a SMILES string. Calls of active or inactive are those of the source. The rule behind the calls is not given here.

The nature of data set [1]: Selectivity index, ratio of IC50 for human L02 cells to IC50 for human MDA-MB-231 cells by MTT assay. The data set is classed as toxicity. The following applies: L02 cells versus MDA-MB-231 cells, read-out: Ratio IC50. (Tetrazolium assays rely on reduction of a dye to a coloured formazan, in cell work by metabolically active cells.)
The nature of data set [2]: Selectivity index, ratio of IC50 for human L02 cells to IC50 for human A549 cells by MTT assay. In kind it is toxicity. The following applies: L02 cells versus A549 cells, read-out: Ratio IC50.
Data set [3] deals with T1, Nuclear receptor subfamily 4immunitygroup A member 1 (Homo sapiens, UniProt P22736). Briefly: Modulation of GFP-Nur77 (unknown origin) transfected in human HepG2 cells assessed as induction of Nur77 translocation from nucleus to mitochondria at 10 uM incubated for 3 hrs by confocal microscopy. The settings on record: filed as modulator.
Data set [4] in a line: Toxicity in Zebra fish AB embryo assessed as induction of morphological abnormalities at 0.5 uM incubated for 72 hrs. The following applies: zebrafish. Also on record: species or system Danio rerio.
A short description of data set [5]: Toxicity in BALB/c nude mouse xenografted with human HepG2 cells assessed as effect on liver damage at 50 mg/kg ip administered once every day for 14 days by H and E staining based analysis. In kind it is organism-based. The following applies: in vivo, 336 h, time 14 day. A general note: Xenograft models place foreign cells or tissue in a host animal.
Data set [6] is described as follows: Toxicity in BALB/c nude mouse xenografted with human HepG2 cells assessed as effect on spleen damage at 50 mg/kg ip administered once every day for 14 days by H and E staining based analysis. In kind it is organism-based. The following applies: in vivo, 336 h, time 14 day.
The subject of data set [7] is HepG2. The experiment in a line: Induction of apoptosis in human HepG2 cells assessed as early apoptotic cells at 10 uM incubated for 12 hrs by AnnexinV-FITC/PI staining based flow cytometry (reference value: 0.83%). The data set is classed as functional.
In data set [8] the test system is HepG2. The experiment in a line: Antitumor activity against human HepG2 cells xenografted in BALB/c nude mouse assessed as induction of nuclear shrinkage in tumor tissues at 50 mg/kg, ip administered once every day for 14 days by H and E staining based analysis. The data set is classed as functional, organism-based. The settings on record: time 14.0 day.
Data set [9] deals with T1, Nuclear receptor subfamily 4immunitygroup A member 1. The experiment in a line: Modulation of Myc-Nur77 (unknown origin) transfected in HEK293T cells assessed as induction of Nur77 translocation from nucleus to cytoplasm at 10 uM incubated for 2 to 4 hrs by western blot analysis. The following applies: filed as modulator, time 2-4 hrs. The data set is classed as cell-based.

Data set [10] can be described thus: Selectivity index, ratio of IC50 for human L02 cells to IC50 for human SMMC-7721 cells by MTT assay. In kind it is toxicity. The following applies: L02 cells versus SMMC-7721 cells, read-out: Ratio IC50.
A short description of data set [11]: Selectivity index, ratio of IC50 for human L02 cells to IC50 for human HepG2 cells by MTT assay. In kind it is toxicity. The settings on record: L02 cells versus HepG2 cells, read-out: Ratio IC50.
The target in data set [12] is T1, Nuclear receptor subfamily 4immunitygroup A member 1. Briefly: Modulation of Myc-Nur77-LBD (unknown origin) transfected in human HepG2 cells assessed as induction of Nur77 translocation from nucleus to mitochondria at 10 uM incubated for 3 hrs by confocal microscopy. The settings on record: filed as modulator.
Data set [13] is described as follows: Toxicity in BALB/c nude mouse xenografted with human HepG2 cells assessed as effect on kidney damage at 50 mg/kg ip administered once every day for 14 days by H and E staining based analysis. In kind it is organism-based. The settings on record: in vivo, 336 h, time 14 day.
The subject of data set [14] is HepG2. Briefly: Induction of apoptosis in Nur77 overexpressing human HepG2 cells transfected with Myc-Nur77 assessed as induction of PARP cleavage at 5 uM incubated for 12 hrs by western blot analysis. The data set is classed as functional, cell-based. A general note: In western blotting, separated proteins are transferred to a membrane and probed.
Data set [15] relates to HepG2. The experiment in a line: Induction of apoptosis in human HepG2 cells transfected with Nur77 siRNA assessed as mitochondrial membrane potential loss by measuring proportion of cells with depolarized MMP at 10 uM incubated for 12 hrs by JC-1 staining based flow cytometry (reference value: 5.81%). In kind it is functional.
The target in data set [16] is T1, Nuclear receptor subfamily 4immunitygroup A member 1. The experiment in a line: Binding affinity to Nur77 ligand binding domain (unknown origin) by surface plasmon resonance analysis.
In data set [17] the target is T2, Peroxisome proliferator-activated receptor gamma (Homo sapiens) (UniProt P37231).
T2 sequence (whole entry): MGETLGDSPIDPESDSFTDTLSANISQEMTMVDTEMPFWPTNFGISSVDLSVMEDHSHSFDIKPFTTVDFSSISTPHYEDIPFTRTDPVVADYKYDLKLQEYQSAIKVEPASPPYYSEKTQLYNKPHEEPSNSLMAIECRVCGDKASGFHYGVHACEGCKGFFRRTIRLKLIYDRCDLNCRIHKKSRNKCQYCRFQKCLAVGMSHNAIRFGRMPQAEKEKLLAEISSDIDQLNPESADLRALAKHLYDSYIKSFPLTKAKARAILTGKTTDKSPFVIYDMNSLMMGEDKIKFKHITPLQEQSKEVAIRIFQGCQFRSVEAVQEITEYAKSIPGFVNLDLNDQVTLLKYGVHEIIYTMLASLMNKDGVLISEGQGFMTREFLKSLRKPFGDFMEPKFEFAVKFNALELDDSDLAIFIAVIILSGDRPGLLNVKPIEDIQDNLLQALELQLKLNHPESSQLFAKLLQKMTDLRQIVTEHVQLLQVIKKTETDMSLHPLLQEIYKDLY
The experiment in a line: Binding affinity to pBind-PPARgamma-LBD (unknown origin) transfected in HEK293T cells co-transfected with pG5-Luc at 5 uM incubated for 12 hrs by luciferase reporter gene assay. In kind it is cell-based.

Data set [18] is described as follows: Cytotoxicity against human L02 cells assessed as cell viability at 10 uM incubated for 48 hrs by MTT assay. The data set is classed as toxicity, cell-based. The settings on record: read-out: Activity.
Data set [19] can be described thus: Cytotoxicity against human L02 cells assessed as reduction in cell viability incubated for 48 hrs by MTT assay. In kind it is toxicity, cell-based.
A further data set concerns HeLa. The experiment in a line: Antiproliferative activity against human HeLa cells assessed as reduction in cell viability incubated for 48 hrs by MTT assay. The data set is classed as functional, cell-based.
The subject of data set [20] is HepG2. The experiment in a line: Induction of apoptosis in human HepG2 cells assessed as necrotic cells at 10 uM incubated for 12 hrs by AnnexinV-FITC/PI staining based flow cytometry (reference value: 0.92%). The data set is classed as functional.
A further data set deals with A549. The experiment in a line: Antiproliferative activity against human A549 cells assessed as reduction in cell viability incubated for 48 hrs by MTT assay. In kind it is functional, cell-based. The following applies: A549, 48 h.
Data set [21] in a line: Toxicity in BALB/c nude mouse xenografted with human HepG2 cells assessed as effect on heart damage at 50 mg/kg ip administered once every day for 14 days by H and E staining based analysis. In kind it is organism-based. The settings on record: in vivo, 336 h, time 14 day.

T1 sequence (P22736 whole entry): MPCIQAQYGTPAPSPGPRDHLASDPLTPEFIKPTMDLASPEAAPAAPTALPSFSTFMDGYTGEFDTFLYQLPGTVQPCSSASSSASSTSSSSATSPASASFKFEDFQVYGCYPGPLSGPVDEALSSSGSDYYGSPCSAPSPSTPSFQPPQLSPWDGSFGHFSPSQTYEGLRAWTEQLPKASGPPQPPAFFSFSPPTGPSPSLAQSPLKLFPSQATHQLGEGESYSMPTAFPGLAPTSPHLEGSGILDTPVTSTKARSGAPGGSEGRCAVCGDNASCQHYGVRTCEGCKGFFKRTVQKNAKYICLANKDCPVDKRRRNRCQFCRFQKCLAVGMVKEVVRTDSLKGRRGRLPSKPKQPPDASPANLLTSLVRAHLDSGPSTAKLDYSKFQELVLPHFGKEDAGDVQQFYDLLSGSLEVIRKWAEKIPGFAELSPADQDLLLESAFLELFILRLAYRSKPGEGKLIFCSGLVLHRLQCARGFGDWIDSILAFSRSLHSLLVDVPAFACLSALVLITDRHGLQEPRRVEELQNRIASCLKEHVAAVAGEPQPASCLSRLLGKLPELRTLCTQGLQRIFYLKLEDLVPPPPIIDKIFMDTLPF

For the compound `CN(C)CCCNC(=O)c1cc2cc(Nc3nccc(-c4cccnc4)n3)ccc2[nH]1`, the selectivity ratio was 3.47 in data set [1], 1.7 in data set [2], 1.9 in [10] and 1.24 in data set [11]. The outcome (in [3]; in the data set on HepG2 [8]; in [9]; in [12]; with HepG2 [14]) was Active. Besides, the Activity entry in data set [4] is “Non-Toxic”; in data set [5] it was “Non-Toxic”; in [6] it was “Non-Toxic”; in the data set on HepG2 [7], 16.5%; in data set [13], “Non-Toxic”; with HepG2 [15], 8.91%. Moreover, the Activity entry was “Dose-Dependent Effect” in data set [16] (filed as modulator), 2.83% in the data set with HepG2 [20] and “Non-Toxic” in data set [21]. The compound further returned a Kd in data set [16] of 0.354 µM. Besides, the result in [17] was inactive. Moreover, in data set [18], the viability at 48 h, 10 µM was found to be 53.4%. The IC50 at 48 h in data set [19] is 11.2 µM. The IC50 in the data set with HeLa is 3.75 µM; with A549 it was 6.63 µM.
